Laboratory results published in patent EP4740948A1 (Dong Wha Pharm. Co., Ltd., priority 2023, dated 2025).

Columns and labels:
Format in all cases: cell-based
[1] = tested on: G401 cells; test: Cancer cell proliferation inhibition (Cell Counting Kit-8), rhabdoid tumor cell line; details: 1000 nM, cultured seven to 11 days; for % inhibition rate G401: 1 µM; for inhibition at 1 µM: Homo sapiens, G-401, 264 h, read-out: % inhibition rate G401
Text: (§1) Among solid cancer cells, in G401 cells in which expression of SMARCB1, which is a member of switch/sucrosenon-fermenting (SWI/SNF), is defective as a cell line of a rhabdoid tumor in which a therapeutic effect may be expected through dual inhibition of EZH1/2, and MKN-45 cells in which expression of ARID1A, which is a member of SWI/SNF, is defective as a gastric cancer cell line, a proliferation inhibitory ability of the 1,3-benzodioxole derivative compounds represented by chemical formula I of the present invention was evaluated.
(§2) Each cell line (G401 cell, MKN-45 cell, Lovo cell, SW-13 cell, MIA-PaCa-2, NCI-H1299) of Table 2 below was cultured using RPMI1640, McCoy's 5a, L-15 or DMEM containing 10% fetal bovine serum, and the cells were seeded into wells of a 96-well culture dish at 100 to 1,000 cells each, and a test substance 1000 nM was cultured for seven to 11 days after drug treatment. After the culture, the cells were measured according to a manufacturer's instructions using Cell Counting Kit-8, and a cell proliferation inhibitory effect (% inhibition rate) of the test substance was obtained.
(§3) The cell proliferation inhibitory effect (% inhibition rate) of the test substance was calculated using a following equation. % inhibition rate = {1−(testgroup/controlgroup)} X 100 [formula]

[2] = tested on: MKN-45 cells; test: Cancer cell proliferation inhibition (Cell Counting Kit-8), gastric cancer cell line; details: 1000 nM, cultured seven to 11 days; for inhibition at 1 µM: Homo sapiens, MKN-45, 264 h, read-out: % inhibition rate MKN -45
Text: as §1, §2, §3

[3] = tested on: SW-13 cells; test: Cancer cell proliferation inhibition (Cell Counting Kit-8), adrenal cancer cell line; details: 1000 nM, cultured seven to 11 days; for inhibition at 1 µM: Homo sapiens, SW13, 264 h, read-out: % inhibition rate SW-13
Procedure: (§4) In addition, as one example of solid cancer in which an overexpression of EZH2 and a consequent disease association therebetween is reported, a proliferation inhibitory activity of the 1,3-benzodioxole derivative compounds represented by chemical formula I of the present invention was evaluated in Lovo cells as a colorectal cancer cell line, SW-13 cells as an adrenal cancer cell line, MIA-PaCa-2 cells as a pancreatic cancer cell line, and NCI-H1299 cells as a lung cancer cell line.
as §2, §3

[4] = tested on: NCI-H1299 cells; test: Cancer cell proliferation inhibition (Cell Counting Kit-8), lung cancer cell line; details: 1000 nM, cultured seven to 11 days; for inhibition at 1 µM: Homo sapiens, NCI-H1299, 264 h, read-out: % inhibition rate NCI-H129 9
Procedure: as §4, §2, §3

[5] = tested on: Lovo cells; test: Cancer cell proliferation inhibition (Cell Counting Kit-8), colorectal cancer cell line; details: 1000 nM, cultured seven to 11 days; for inhibition at 1 µM: Homo sapiens, LoVo, 264 h, read-out: % inhibition rate LoVo
Procedure: as §4, §2, §3

[6] = tested on: MIA-PaCa-2 cells; test: Cancer cell proliferation inhibition (Cell Counting Kit-8), pancreatic cancer cell line; details: 1000 nM, cultured seven to 11 days; for inhibition at 1 µM: Homo sapiens, MIA PaCa-2, 264 h, read-out: % inhibition rate MIA-Paca2
Procedure: as §4, §2, §3

Row | Compound | % inhibition rate G401 [1] | % inhibition rate MKN -45 [2] | % inhibition rate SW-13 ([3]; 1 µM) | % inhibition rate NCI-H129 9 [4] | % inhibition rate LoVo [5] | % inhibition rate MIA-Paca2 [6] | % inhibition rate MKN -45 ([2]; 1 µM) | % inhibition rate NCI-H129 9 ([4]; 1 µM) | % inhibition rate LoVo ([5]; 1 µM) | % inhibition rate MIA-Paca2 ([6]; 1 µM) | inhibition at 1 µM [1] [%] | inhibition at 1 µM [2] [%] | inhibition at 1 µM [3] [%] | inhibition at 1 µM [4] [%] | inhibition at 1 µM [5] [%] | inhibition at 1 µM [6] [%] | % inhibition rate SW-13 [3]
1 | CSc1cc(C)[nH]c(=O)c1CNC(=O)c1cc(-c2cnc(N3CCOCC3)nc2)c2c(c1C)OC(C)(C1CCN(CC(F)(F)F)CC1)O2 (single isomer, unassigned) [Compound 70, 2,4-dimethyl-N-((6-methyl-4-(methylthio)-2-oxo-1,2-dihydropyridin-3-yl)methyl)-7-(2-morpholinopyrimidine-5-yl)-2-(1-(2,2,2-trifluoro)piperidin-4-yl)benzo[d][1,3]dioxole-5-carboxamide] | + (+: ≤30%) | ++ (++: more than 30% and less than 70%) | + (+: ≤30%) | + (+: ≤30%) | +++ (+++: ≥70%) | + (+: ≤30%) |  |  |  |  |  |  |  |  |  |  | 
2 | CSc1cc(C)[nH]c(=O)c1CNC(=O)c1cc(-c2ccc(N3C[C@@H](C)O[C@@H](C)C3)nc2)c2c(c1C)OC(C)(C1CCN(CCCC(F)(F)F)CC1)O2 (single isomer, unassigned) [Compound 58] | + (+: ≤30%) |  | + (+: ≤30%) |  |  |  | + (+: ≤30%) | + (+: ≤30%) | ++ (++: more than 30% and less than 70%) | + (+: ≤30%) |  |  |  |  |  |  | 
3 | CSc1cc(C)[nH]c(=O)c1CNC(=O)c1cc(-c2ccc(N3C[C@@H](C)O[C@@H](C)C3)nc2)c2c(c1C)OC(C)([C@H]1CC[C@H](N3CC(OC(C)C)C3)CC1)O2 (stereo partly drawn) [Compound 105, 7-(6-((2S,6R)-2,6-dimethylmorpholino)pyridin-3-yl)-2-(trans-4-(3-isopropoxyazetidin-1-yl)cyclohexyl)-2,4-dimethyl-N-((6-methyl-4-(methylthio)-2-oxo-1,2-dihydropyridin-3-yl)methyl)benzo[d][1,3]dioxole-5-carboxamide] |  |  |  |  |  |  |  |  |  |  | 30 to 70 | ≥ 70 | ≥ 70 | ≥ 70 | ≥ 70 | ≥ 70 | 
4 | CSc1cc(C)[nH]c(=O)c1CNC(=O)c1cc(-c2ccc(N3CCOCC3)nc2)c2c(c1C)OC(C)(C1CCN(CC(F)F)CC1)O2 (single isomer, unassigned) [Compound 65, 2-(1-(2,2-difluoroethyl)piperidin-4-yl)-2,4-dimethyl-N-((6-methyl-4-(methylthio)-2-oxo-1,2-dihydropyridin-3-yl)methyl)-7-(6-morpholinopyridin-3-yl)benzo[d][1,3]dioxole-5-carboxamide] | + (+: ≤30%) | ++ (++: more than 30% and less than 70%) | + (+: ≤30%) | + (+: ≤30%) |  | + (+: ≤30%) |  |  | ++ (++: more than 30% and less than 70%) |  |  |  |  |  |  |  | 
5 | CCN1CCC(C2(C)Oc3c(-c4ccc(N5C[C@@H](C)O[C@@H](C)C5)nc4)cc(C(=O)NCc4c(SC)cc(C)[nH]c4=O)c(C)c3O2)CC1 (single isomer, unassigned) [Compound 50] | + (+: ≤30%) | + (+: ≤30%) | + (+: ≤30%) | ++ (++: more than 30% and less than 70%) |  | + (+: ≤30%) |  |  | + (+: ≤30%) |  |  |  |  |  |  |  | 
6 | CCN(C)c1ccc(-c2cc(C(=O)NCc3c(SC)cc(C)[nH]c3=O)c(C)c3c2OC(C)(C2CCN(CC(F)(F)F)CC2)O3)cn1 (single isomer, unassigned) [Compound 80, 7-(2-(ethyl(methyl)amino)pyridin-5-yl)-2,4-dimethyl-N-((6-methyl-4-(methylthio)-2-oxo-1,2-dihydropyridin-3-yl)methyl)-2-(1-(2,2,2-trifluoroethyl)piperidin-4-yl)benzo[d][1,3]dioxole-5-carboxamide] | + (+: ≤30%) |  | + (+: ≤30%) |  | +++ (+++: ≥70%) | + (+: ≤30%) | ++ (++: more than 30% and less than 70%) | + (+: ≤30%) |  |  |  |  |  |  |  |  | 
7 | CSc1cc(C)[nH]c(=O)c1CNC(=O)c1cc(-c2ccc(N3C[C@@H](C)O[C@@H](C)C3)nc2)c2c(c1C)OC(C)([C@H]1CC[C@H](N3CC(CC(F)(F)F)C3)CC1)O2 (stereo partly drawn) [Compound 102, 7-(6-((2S,6R)-2,6-dimethylmorpholino)pyridin-3-yl)-2,4-dimethyl-N-((6-methyl-4-(methylthio)-2-oxo-1,2-dihydropyridin-3-yl)methyl)-2-(trans-4-(3-(2,2,2-trifluoroethyl)azetidin-1-yl)cyclohexyl)benzo[d][1,3]dioxole-5-carboxamide] |  |  |  |  |  |  |  |  |  |  | 30 to 70 | 30 to 70 | ≥ 70 | ≤ 30 | ≥ 70 | ≥ 70 | 
8 | CCN1CCC(C2(C)Oc3c(-c4cnc(N5CCOCC5)nc4)cc(C(=O)NCc4c(SC)cc(C)[nH]c4=O)c(C)c3O2)CC1 (single isomer, unassigned) [Compound 74, 2-(1-ethylpiperidin-4-yl)-2,4-dimethyl-N-((6-methyl-4-(methylthio)-2-oxo-1,2-dihydropyridin-3-yl)methyl)-7-(2-morpholinopyrimidin-5-yl)benzo[d][1,3]dioxole-5-carboxamide] | + (+: ≤30%) |  | + (+: ≤30%) | + (+: ≤30%) | ++ (++: more than 30% and less than 70%) | + (+: ≤30%) | + (+: ≤30%) |  |  |  |  |  |  |  |  |  | 
9 | CSc1cc(C)[nH]c(=O)c1CNC(=O)c1cc(-c2ccc(N3C[C@@H](C)O[C@@H](C)C3)nc2)c2c(c1C)OC(C)(C1CCN(C3CCCCC3)CC1)O2 (single isomer, unassigned) [Compound 54] | ++ (++: more than 30% and less than 70%) | + (+: ≤30%) |  |  |  | + (+: ≤30%) |  | + (+: ≤30%) | ++ (++: more than 30% and less than 70%) |  |  |  |  |  |  |  | ++ (++: more than 30% and less than 70%)
